Data from patent US20130184302A1, “METHODS FOR TREATING IRRITABLE BOWEL SYNDROME (IBS) AND INFECTIONS” (priority 2011, published 2013).

How the values were obtained:
Assay type in all cases: in vivo, human
[1] = test system: C. difficile infection (CDI); assay: CDI trial: global cure of diarrhea; conditions: Rifaximin N = 117, Vancomycin N = 115
From the text: Subjects having a global cure of diarrhea are set for the in Table 45. Global cure of diarrhea was defined as subjects who were cured of diarrhea at TOC without recurrence at follow up.

[2] = test system: C. difficile infection (CDI); assay: CDI trial rifaximin 400 mg TID vs vancomycin 125 mg QID: clinical success at Test of Cure; conditions: at TOC (Day 14+/−1)
Experimental: Criteria for entry into the trial were: • Age>=18 years old; • Had acute diarrhea at screening defined as >=3 unformed stools in the last 24 hours and at least one sign of enteric infection (fever, nausea, lose of appetite, vomiting, severe abdominal pain/discomfort); and • a positive C. diff stool toxin assay
The primary efficacy endpoint of the study was defined as the proportion of subjects achieving clinical success. Specifically, clinical success was defined as the absence of severe abdominal pain at Test of Cure (TOC), absence of fever (<38° C.) at TOC, and <3 unformed stools for two consecutive days at TOC.
The non-inferiority margin for the primary endpoint was defined as lower bound of 95% CI of delta above −15%.
Clinical success was defined as the: Absence of severe abdominal pain at TOC, absence of fever (<38° C.) at TOC, and <3 unformed stools for two consecutive days at TOC. Test of cure defined as Day 14+/−1 day.

[3] = test system: C. difficile infection (CDI); assay: CDI trial: continuing illnesses; conditions: Rifaximin N = 117, Vancomycin N = 115
[4] = test system: C. difficile infection (CDI); assay: CDI trial: subgroup analysis of diarrhea at TOC; conditions: at TOC
From the text: Tables 42 and 43 set forth a subgroup analysis of diarrhea at TOC.

[5] = test system: C. difficile infection (CDI); assay: CDI trial: number of unformed stools during the treatment period; conditions: during the treatment period; ANOVA model with treatment and center as main effects; Rifaximin N = 117, Vancomycin N = 115
From the text: FIG. 18 sets for the average number of unformed stools per day of the study.

[6] = test system: C. difficile infection (CDI); assay: CDI trial: enteric symptoms at TOC; conditions: Rifaximin N = 108, Vancomycin N = 111
From the text: Table 41 sets forth a summary of the enteric symptoms at TOC.

[7] = test system: C. difficile infection (CDI); assay: CDI trial: efficacy adjusting for concomitant medication usage
From the text: Table 48 sets forth the efficacy adjusting for concomitant medication usage.

[8] = test system: C. difficile infection (CDI); assay: CDI trial: recurrence of CDI, recurrence rate per person-year
From the text: Recurrence was defined to be a diarrhea and a positive C. diff stool toxin assay that occurred after initial clinical success.

[9] = cured of diarrhea at TOC without recurrence at follow up
[10] = Rifaximin N = 117, Vancomycin N = 115
[11] = subgroup Age <65, Rifaximin N = 69, Vancomycin N = 62
[12] = subgroup Age >=65, Rifaximin N = 39, Vancomycin N = 49
[13] = subgroup Female, Rifaximin N = 68, Vancomycin N = 64
[14] = subgroup Male, Rifaximin N = 40, Vancomycin N = 47
[15] = Rifaximin N = 109, Vancomycin N = 112
[16] = after initial clinical success, Rifaximin N = 67, Vancomycin N = 73
[17] = all subjects, Rifaximin N = 117, Vancomycin N = 115

CN[C@H](CC(C)C)C(=O)N[C@H]1C(=O)N[C@@H](CC(N)=O)C(=O)N[C@H]2C(=O)N[C@H]3C(=O)N[C@H](C(=O)N[C@H](C(=O)O)c4cc(O)cc(O)c4-c4cc3ccc4O)[C@H](O)c3ccc(c(Cl)c3)Oc3cc2cc(c3O[C@@H]2O[C@H](CO)[C@@H](O)[C@H](O)[C@H]2O[C@H]2C[C@](C)(N)[C@H](O)[C@H](C)O2)Oc2ccc(cc2Cl)[C@H]1O [Vancomycin, vancomycin]
Global Cure of Diarrhea: No, number of subjects [1]: 30 | Global Cure of Diarrhea: No, percent of subjects [1]: (26%) | Global Cure of Diarrhea: Yes, number of subjects [1, 9]: 85 | Global Cure of Diarrhea: Yes, percent of subjects [1, 9]: (74%) | Clinical Success: Yes, number of subjects ([2]; Rifaximin 400 mg TID N = 117, Vancomycin 125 mg QID N = 115): 73 | Clinical Success: No, number of subjects [2, 10]: 42 | Clinical Success: No, percent of subjects [2, 10]: (37%) | Clinical Success: Yes, percent of subjects [2, 10]: (64%) | Continuing Illness: No, number of subjects [3]: 99 | Continuing Illness: No, percent of subjects [3]: (86%) | Continuing Illness: Yes, number of subjects [3]: 16 | Continuing Illness: Yes, percent of subjects [3]: (14%) | Diarrhea, number of subjects [4, 11]: 12 | Diarrhea, percent of subjects [4, 11]: (19%) | No Diarrhea, number of subjects [4, 11]: 50 | No Diarrhea, percent of subjects [4, 11]: (81%) | Diarrhea, number of subjects [4, 12]: 9 | Diarrhea, percent of subjects [4, 12]: (18%) | No Diarrhea, number of subjects [4, 12]: 40 | No Diarrhea, percent of subjects [4, 12]: (82%) | Diarrhea, number of subjects [4, 13]: 11 | Diarrhea, percent of subjects [4, 13]: (17%) | No Diarrhea, number of subjects [4, 13]: 53 | No Diarrhea, percent of subjects [4, 13]: (83%) | Diarrhea, number of subjects [4, 14]: 10 | Diarrhea, percent of subjects [4, 14]: (21%) | No Diarrhea, number of subjects [4, 14]: 37 | No Diarrhea, percent of subjects [4, 14]: (79%) | Adjusted mean number of unformed stools-ANOVA [5]: 1.90 | Diarrhea: No, number of subjects [6]: 90 | Diarrhea: No, percent of subjects [6]: (81%) | Diarrhea: Yes, number of subjects [6]: 21 | Diarrhea: Yes, percent of subjects [6]: (19%) | Fever: No, number of subjects [6]: 109 | Fever: No, percent of subjects [6]: (98%) | Fever: Yes, number of subjects [6]: 2 | Fever: Yes, percent of subjects [6]: (2%) | Severe Abdominal Pain/Discomfort: No, number of subjects [6]: 95 | Severe Abdominal Pain/Discomfort: No, percent of subjects [6]: (86%) | Severe Abdominal Pain/Discomfort: Yes, number of subjects [6]: 16 | Severe Abdominal Pain/Discomfort: Yes, percent of subjects [6]: (14%) | Diarrhea: No, number of subjects [7, 15]: 82 | Diarrhea: No, percent of subjects [7, 15]: (73%) | Diarrhea: Yes, number of subjects [7, 15]: 30 | Diarrhea: Yes, percent of subjects [7, 15]: (27%) | Clinical Success: No, number of subjects [7, 10]: 46 | Clinical Success: No, percent of subjects [7, 10]: (40%) | Clinical Success: Yes, number of subjects [7, 10]: 69 | Clinical Success: Yes, percent of subjects [7, 10]: (60%) | No Recurrence of CDI, number of subjects [8, 16]: 63 | No Recurrence of CDI, percent of subjects [8, 16]: (86%) | Recurrence of CDI, number of subjects [8, 16]: 10 | Recurrence of CDI, percent of subjects [8, 16]: (14%) | Recurrence: No, number of subjects [8, 17]: 105 | Recurrence: No, percent of subjects [8, 17]: (93%) | Recurrence: Yes, number of subjects [8, 17]: 10 | Recurrence: Yes, percent of subjects [8, 17]: (7%)
